# Reference: patent US8232407B2, “Nitrogenous heterocyclic compounds with insecticidal activity, and the preparation and use thereof” (East China University of Science and Technology, priority 2008, dated 2012)
# Columns and labels:
# Assay type in all cases: in vivo
# [1] = system: Pseudaletia separate Walker; experiment: Insecticidal activities to armyworm, leaf dipping and feeding
# Summary of the method: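 Armyworms (10 per tumbler, 3 replicates) ate fresh maize leaves that had been immersed for 3 seconds in compound solutions of 1.57-500 ppm in acetone, or in aqueous acetone for controls. Kills were scored at 24 h, and mortality was calculated relative to survivors in the control group.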
# Plutella xylostella = experiment: Insecticidal activities to diamondback moth, feeding dipped leaves; conditions: for Plutella xylostella Mortality (%) 500 ppm: in vivo
# Summary of the method: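 Mortality was scored 24 h after larvae of Plutella xylostella (10 per treatment, 3 repeats) fed on cabbage leaves immersed 3 s in test solution and dried at room temperature. It was computed relative to survivors in a water-treated control.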
# Aphis craccivoral = experiment: Insecticidal activities to aphids, immersion method; conditions: for Aphis craccivoral Mortality (%) 500 ppm: in vivo
# Summary of the method: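 Immersion assay: compound diluted from 10 g/L DMF stock to 500 ppm in 0.2 mL/L Triton X-100, sprout-feeding wingless adults dipped 5 s. Kept at 23° C, three repeats; 24 h mortality calculated relative to surviving Triton-treated controls.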
# Nilaparvata lugens = experiment: Insecticidal activities to plant hopper, spraying method; conditions: for Nilaparvata lugens Mortality (%) 500 ppm: in vivo
# Summary of the method: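 Spray test: acetone solutions of 500 down to 0.79 ppm, 2 ml per tumbler holding 10 planthoppers introduced 6 h earlier, triplicate, aqueous acetone as control. Mortality at 24 h calculated from survivors relative to control.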
Compound,Pseudaletia separate Walker Mortality (%) 500 ppm ([1]; in vivo) [%],Plutella xylostella Mortality (%) 500 ppm (Plutella xylostella) [%],Aphis craccivoral Mortality (%) 500 ppm (Aphis craccivoral) [%],Nilaparvata lugens Mortality (%) 500 ppm (Nilaparvata lugens) [%],"Pseudaletia separate Walker Mortality (%) 500 ppm ([1]; 500 ppm, leaf dipping and feeding, counted after 24 hours) [%]","mortality at 500 ppm (Plutella xylostella; Plutella xylostella, 500 ppm, feeding dipped leaves, counted after 24 hours, read-out: Plutella xylostella Mortality (%) 500 ppm) [%]","mortality at 500 ppm (Aphis craccivoral; Aphis, 500 ppm, immersion method, read-out: Aphis craccivoral Mortality (%) 500 ppm) [%]","mortality at 500 ppm (Nilaparvata lugens; Nilaparvata lugens, 500 ppm, spraying method, counted after 24 hours, read-out: Nilaparvata lugens Mortality (%) 500 ppm) [%]"
Cn1cccc1C=C(C1=NCCN1Cc1ccc(Cl)nc1)[N+](=O)[O-] [Compound 32],100,100,100,100,–,–,–,–
O=[N+]([O-])C(=Cc1cc(Cl)c(Cl)o1)C1=NCCCN1Cc1ccc(Cl)nc1 [Compound 53],100,100,100,100,–,–,–,–
N#CC(=Cc1cc(Cl)c(Cl)s1)C1=NCCN1Cc1ccc(Cl)nc1 [Compound 149],97,100,94,100,–,–,–,–
O=[N+]([O-])C(=Cc1cccs1)C1=NCCCN1Cc1ccc(Cl)nc1 [Compound 61],100,100,100,100,–,–,–,–
O=[N+]([O-])C(=Cc1ccoc1)C1=NCCN1CC1CCOC1 (stereo not drawn) [Compound 92],100,100,80,100,–,–,–,–
CCc1ccc(C=C(C2=NCCN2Cc2cnc(Cl)s2)[N+](=O)[O-])o1 [Compound 81],100,100,100,100,–,–,–,–
CC(c1ccc(Cl)nc1)N1CCN=C1C(=Cc1ccsc1)[N+](=O)[O-] (racemic) [Compound 128],100,100,100,100,–,–,–,–
O=[N+]([O-])C(=Cc1oc(Cl)cc1Cl)C1=NCCN1Cc1ccccc1 [Compound 109],60,56,91,100,–,–,–,–
O=[N+]([O-])C(=Cc1cncs1)C1=NCCN1Cc1ccc(Cl)nc1 [Compound 34],100,100,100,100,–,–,–,–
C[N+]1=C(C(=Cc2cc(Br)c(Br)o2)[N+](=O)[O-])N(Cc2ccc(Cl)nc2)CC1.[Cl-] [Compound 253],100,100,100,100,–,–,–,–
CC(c1ccc(Cl)nc1)N1CCN=C1C(=Cc1ccc[nH]1)[N+](=O)[O-] (racemic) [Compound 131],100,63,100,100,–,–,–,–
O=[N+]([O-])C(=Cc1ccccc1)C1=NCCN1Cc1ccc(Cl)nc1 [Compound 44],97,100,67,92,–,–,–,–
O=[N+]([O-])C(=Cc1cc(Br)c(Br)o1)C1=NCCCN1Cc1ccc(Cl)nc1 [Compound 55],100,100,98,100,–,–,–,–
"O=[N+]([O-])/C(=C/c1ccco1)C1=NCCN1Cc1cnc(Cl)s1 [Compound 68, 1-((2-chlorothiozol-5-yl)methyl)-2-(2-(furan-2-yl)-1-nitrovinyl)-4,5-dihydro-1H-imidazole]",–,–,–,–,100,100,100,100
O=[N+]([O-])C(=Cc1ccc(Cl)o1)C1=NCCCN1Cc1ccc(Cl)nc1 [Compound 49],100,100,100,100,–,–,–,–
O=[N+]([O-])C(=Cc1cc(Br)cs1)C1=NCCN1Cc1cnc(Cl)s1 [Compound 89],97,100,100,100,–,–,–,–
Cc1coc(C=C(C2=NCCN2Cc2ccc(Cl)nc2)[N+](=O)[O-])c1 [Compound 13],100,100,100,100,–,–,–,–

Compound,Pseudaletia separate Walker Mortality (%) 500 ppm ([1]; in vivo) [%],Plutella xylostella Mortality (%) 500 ppm (Plutella xylostella) [%],Aphis craccivoral Mortality (%) 500 ppm (Aphis craccivoral) [%],Nilaparvata lugens Mortality (%) 500 ppm (Nilaparvata lugens) [%],"Pseudaletia separate Walker Mortality (%) 500 ppm ([1]; 500 ppm, leaf dipping and feeding, counted after 24 hours) [%]","mortality at 500 ppm (Plutella xylostella; Plutella xylostella, 500 ppm, feeding dipped leaves, counted after 24 hours, read-out: Plutella xylostella Mortality (%) 500 ppm) [%]","mortality at 500 ppm (Aphis craccivoral; Aphis, 500 ppm, immersion method, read-out: Aphis craccivoral Mortality (%) 500 ppm) [%]","mortality at 500 ppm (Nilaparvata lugens; Nilaparvata lugens, 500 ppm, spraying method, counted after 24 hours, read-out: Nilaparvata lugens Mortality (%) 500 ppm) [%]"
C[N+]1=C(C(=Cc2cc(Br)c(Br)s2)[N+](=O)[O-])N(Cc2ccc(Cl)nc2)CC1.[Cl-] [Compound 268],100,100,100,100,–,–,–,–
O=[N+]([O-])C(=Cc1ccc(Br)s1)C1=NCCCN1Cc1ccc(Cl)nc1 [Compound 65],92,100,73,100,–,–,–,–
O=[N+]([O-])C(=Cc1ccc(CO)o1)C1=NCCN1Cc1ccc(Cl)nc1 [Compound 15],100,100,100,100,–,–,–,–
O=[N+]([O-])C(=Cc1ccoc1)C1=NCCN1Cc1ccccc1 [Compound 104],79,81,96,100,–,–,–,–
CCc1ccc(C=C(C2=NCCCN2Cc2ccc(Cl)nc2)[N+](=O)[O-])o1 [Compound 59],86,100,57,84,–,–,–,–
O=[N+]([O-])C(=Cc1cc(Cl)co1)C1=NCCN1Cc1ccccc1 [Compound 106],59,75,91,87,–,–,–,–
Cn1cccc1C=C(C1=[N+](C)CCN1Cc1ccc(Cl)nc1)[N+](=O)[O-].[Cl-] [Compound 275],100,100,100,100,–,–,–,–
C[N+]1=C(C(=Cc2ccc(Cl)o2)[N+](=O)[O-])N(Cc2cnc(Cl)s2)CC1.[Cl-] [Compound 278],100,100,100,100,–,–,–,–
O=[N+]([O-])C(=Cc1ccc(Cl)s1)C1=NCCCN1Cc1ccc(Cl)nc1 [Compound 64],100,100,100,100,–,–,–,–
O=[N+]([O-])C(=Cc1cnc(Cl)s1)C1=NCCN1Cc1ccc(Cl)nc1 [Compound 35],100,100,100,100,–,–,–,–
O=[N+]([O-])C(=Cc1oc(Cl)cc1Cl)C1=NCCCN1Cc1ccc(Cl)nc1 [Compound 54],100,100,100,100,–,–,–,–
C[N+]1=C(C(=Cc2ccco2)[N+](=O)[O-])N(Cc2ccc(Cl)nc2)CC1.[Cl-] [Compound 244],100,100,100,100,–,–,–,–
CCc1ccc(C=C(C2=NCCN2CC2CCOC2)[N+](=O)[O-])o1 (stereo not drawn) [Compound 101],65,78,76,65,–,–,–,–
O=[N+]([O-])C(=Cc1ccc(F)nc1)C1=NCCN1Cc1ccc(Cl)nc1 [Compound 41],100,100,89,87,–,–,–,–
O=[N+]([O-])C(=Cc1cc2ccccc2[nH]1)C1=NCCN1Cc1ccc(Cl)nc1 [Compound 43],95,100,76,90,–,–,–,–
C[N+]1=C(C(=Cc2oc(Cl)cc2Cl)[N+](=O)[O-])N(Cc2ccc(Cl)nc2)CC1.[Cl-] [Compound 252],100,100,100,100,–,–,–,–
